According to US20200237759A1, “DOSAGE REGIME AND METHOD FOR TREATING PULMONARY ARTERIAL HYPERTENSION” (Altavant Sciences GmbH, priority 2019, published 2020):

How the values were obtained:
[1] = Part 1 SAD urine pharmacokinetics (urinary excretion, renal clearance); assay type: in vivo, human
Procedure: Renal clearance of KAR5417 was calculated from the area under the plasma time concentration curve (AUC0-96) for KAR5417 and the amount of KAR5417 recovered in urine (Table 21).

[2] = system: urine 5-HIAA/24 hours; assay: Part 2 MAD biomarker: urine 5-HIAA/24 hours change from Day 1; assay type: in vivo, human
From the text: (§1) Biomarkers were to be evaluated in Part 2 by measuring concentrations of serotonin (5-hydroxytryptamine [5-HT]) in serum and 5-hydroxyindoleacetic acid (5-HIAA) in plasma and urine. As well, the relationship of biomarkers to PK parameters was to be evaluated.
(§2) The biomarker analysis was to be based on the Biomarker Population (all subjects with evaluable biomarker measurements at baseline [Day 1 predose] and at least one after dosing [Day 7 or Day 14]).
(§3) Biomarker data were to be collected only in Part 2. The following biomarkers were to be analyzed: • Serum 5-HT • Plasma 5-HIAA • Urine 5-HIAA/24 hours (as measured, adjusted, estimated, and per gram creatinine)
Linear regression was to be performed using biomarker changes, absolute and relative (%), from Day 1, at predose on Day 7 or Day 14 versus AUC0-24, Cmax, and Cmin in corresponding study days. The slopes and corresponding 95% confidence intervals (CIs) were to be tabulated. […]
The biomarker portion of the study was conducted in Part 2 MAD using the Biomarker Population. The biomarkers evaluated were serum 5-HT and plasma 5-HIAA, as well as urine 5-HIAA/24 hours (as measured, adjusted, estimated, and per gram creatinine). Urinary 5-HIAA was determined by a validated (21 C.F.R. 58, GLP-compliant) method using liquid chromatographic separation and tandem mass spectrometry detection. […]
Biomarker data were analyzed for each KAR5585 dose separately, for all KAR5585 doses pooled, and for all placebo subjects pooled.
Urine 5 HIAA/24 hour was analyzed in 4 different manners: as measured in the 24-hour collection and (in order to correct for any collection errors) adjusted for creatinine excretion, estimated by the expected creatinine excretion for the subject (as defined in and expressed per gram creatinine. Results were similar for each of the 4 manners and are presented in this report for measured urine. Tables and figures for adjusted, estimated, and per-gram creatinine results are presented in Section 14. […]

[3] = system: serum 5-HT; assay: Part 2 MAD biomarker: serum 5-HT change from Day 1; assay type: in vivo, human
From the text: as §1, §2, §3
Linear regression was to be performed using biomarker changes, absolute and relative (%), from Day 1, at predose on Day 7 or Day 14 versus AUC0-24, Cmax, and Cmin in corresponding study days. The slopes and corresponding 95% confidence intervals (CIs) were to be tabulated.
Summary statistics (mean, standard deviation [SD], median, minimum [Min], and maximum [Max]) were to be tabulated for each biomarker, by Cohort, with absolute and relative (%) changes from Day 1 predose.
The values were to be tabulated with P values testing whether the difference of changes was equal to 0.
The biomarker portion of the study was conducted in Part 2 MAD using the Biomarker Population. The biomarkers evaluated were serum 5-HT and plasma 5-HIAA, as well as urine 5-HIAA/24 hours (as measured, adjusted, estimated, and per gram creatinine). Urinary 5-HIAA was determined by a validated (21 C.F.R. 58, GLP-compliant) method using liquid chromatographic separation and tandem mass spectrometry detection.
The Biomarker Population consisted of all subjects with evaluable baseline (Day 1 predose) and at least one postdose (Day 7 or Day 14) biomarker measurements.
Biomarker data were analyzed for each KAR5585 dose separately, for all KAR5585 doses pooled, and for all placebo subjects pooled. […]

[4] = clinical; details: human, plasma, oral, 100 mg
Procedure: Food effect was to be evaluated in Part 1, Period 2.
Part 2 (MAD): BID doses (separated by approximately 12 hours on Days 1 to 13) and a single AM dose on Day 14. One or more of the MAD Cohort could have been dosed once daily (QD).
(§4) Pharmacokinetic data were to be summarized descriptively.

[5] = Part 1 SAD plasma pharmacokinetics of KAR5585 and KAR5417 after a single oral dose of KAR5585 (fasting; fed food effect); details: for AUC0-inf Geometric Mean / AUC0-tau Geometric Mean / Cmax Geometric Mean: 400 mg KAR5585 single oral dose
Procedure: Food effect was to be evaluated in Part 1, Period 2. Part 2 was permitted to begin before Part 1 was completed and, in each part, the data from each dose Cohort were to be reviewed for safety before the next dose Cohort was enrolled.
Part 1 had 6 Cohorts of 12 subjects each (for a total of 72 subjects) and Part 2 had 4 Cohorts of 12 subjects each (for a total of 48 subjects). In Part 1, the 12 subjects in Cohort 3 (400 mg) were studied twice, once under fasting conditions (Period 1) and once under fed conditions (Period 2) for food-effect assessment.
as §4

[6] = KAR5585 700 mg single oral dose
[7] = 100 mg to 700 mg single dose, 7-fold increase in dose
[8] = 700 mg to 2000 mg single dose, 2.86-fold increase in dose
[9] = arithmetic mean, plasma KAR5417 after single oral 100 mg KAR5585, fasted, Cohort 1
[10] = arithmetic mean, plasma KAR5417 after single oral 700 mg KAR5585, fasted, Cohort 4
[11] = arithmetic mean, plasma KAR5417 after single oral 1200 mg KAR5585, fasted, Cohort 5
[12] = geometric mean, plasma KAR5417 after single oral 200 mg KAR5585, fasted, Cohort 2
[13] = geometric mean, plasma KAR5417 after single oral 400 mg KAR5585, fed, Cohort 3B
[14] = geometric mean, plasma KAR5417 after single oral 1200 mg KAR5585, fasted, Cohort 5
[15] = geometric mean, plasma KAR5417 after single oral 2000 mg KAR5585, fasted, Cohort 6

highest amount excreted in urine, of the dose ([1]; 400 mg fed Cohort (Cohort 3B)): 0.331%
Plasma AUC0-96 Mean ([1]; KAR5585 100 mg single oral dose): 889 ng·h/mL
Plasma AUC0-96 Mean ([1]; KAR5585 400 mg single oral dose, fasted): 3630 ng·h/mL
Plasma AUC0-96 Mean ([1]; KAR5585 400 mg single oral dose, fed): 6590 ng·h/mL
CLR Mean [1, 6]: 191 mL/h
Plasma AUC0-96 Mean [1, 6]: 5990 ng·h/mL
CLR Mean ([1]; KAR5585 1200 mg single oral dose): 157 mL/h
correlation of change from baseline in measured urine 5-HIAA with AUC0-24, Cmax, C12 or AUC0-12 ([2]; Day 7): no significant correlations
correlation of change from baseline in measured urine 5-HIAA with AUC0-24, Cmax, C12 or AUC0-12 ([2]; Day 14): significantly correlated
correlation of change from baseline in serum 5-HT with AUC0-24, Cmax, C12 or AUC0-12 ([3]; Day 7): no significant correlations
correlation of change from baseline in serum 5-HT with AUC0-24, Cmax, C12 or AUC0-12 ([3]; Day 14): correlated
concentration at 24 h [4]: 19.7 ng/mL
increase in mean Cmax ([5]; 100 mg (Cohort 1) to 700 mg (Cohort 4), 7-fold increase in dose): 7.27 fold
increase in mean AUC0-24 [5, 7]: 6.3 fold
increase in mean AUC0-inf [5, 7]: 6.8 fold
exposure (AUC0-tau and AUC0-inf) under fed relative to fasting conditions ([5]; 400 mg KAR5585 single dose): approximately 2 fold
increase in Cmax, fed relative to fasting ([5]; 400 mg KAR5585 single dose): 1.8 fold
increase in mean AUC0-inf, fed relative to fasting ([5]; 400 mg KAR5585 single dose): 1.8 fold
peak exposure (Cmax) higher under fed relative to fasting conditions ([5]; 400 mg KAR5585 single dose): approximately 1.87 fold
peak mean concentrations higher under fed relative to fasting conditions ([5]; 400 mg KAR5585 single dose): approximately 177%
tmax ([5]; 400 mg KAR5585 single dose, fasted): 4 hour postdose
increase in mean Cmax ([5]; 700 mg (Cohort 4) to 2000 mg (Cohort 6), 2.86-fold increase in dose): 1.38 fold
increase in AUC0-24 [5, 8]: 1.7 fold
increase in AUC0-inf [5, 8]: 1.81 fold
AUC0-inf Geometric Mean ([5]; Cohort 3A (Fasting)): 3280 ng·h/mL
AUC0-tau Geometric Mean ([5]; Cohort 3A (Fasting)): 3120 ng·h/mL
Cmax Geometric Mean ([5]; Cohort 3A (Fasting)): 444 ng/mL
Cmax Geometric LS Mean Ratio ([5]; Cohort 3B (Fed) versus Cohort 3A (Fasting), 400 mg KAR5585): 1.87
AUC0-inf Geometric Mean ([5]; Cohort 3B (Fed)): 6630 ng·h/mL
AUC0-tau Geometric Mean ([5]; Cohort 3B (Fed)): 6360 ng·h/mL
Cmax Geometric Mean ([5]; Cohort 3B (Fed)): 831 ng/mL
time by which all subjects had measurable concentrations ([5]; Part 1 SAD): ≤ 0.25 hours postdose
plasma concentrations relative to plasma concentrations of KAR5585 ([5]; Part 1 SAD, fasting): approximately 10 fold
AUC0-12 [5, 9]: 704 ng·h/mL
AUC0-∞ [5, 9]: 886 ng·h/mL
t1/2 [5, 9]: 4.67 h
AUC0-12 [5, 10]: 4350 ng·h/mL
AUC0-24 [5, 10]: 5310 ng·h/mL
AUC0-12 [5, 11]: 5350 ng·h/mL
Cmax [5, 11]: 896 ng/mL
AUC0-12 ([5]; arithmetic mean, plasma KAR5417 after single oral 2000 mg KAR5585, fasted, Cohort 6): 6910 ng·h/mL
AUC0-24 [5, 12]: 940 ng·h/mL
t1/2 [5, 12]: 5.29 h
AUC0-12 [5, 13]: 4170 ng·h/mL
AUC0-24 [5, 13]: 5370 ng·h/mL
AUC0-tau [5, 13]: 6360 ng·h/mL
AUC0-∞ [5, 13]: 6630 ng·h/mL
Cmax [5, 13]: 831 ng/mL
t1/2 [5, 13]: 19.8 h
AUC0-12 ([5]; geometric mean, plasma KAR5417 after single oral 700 mg KAR5585, fasted, Cohort 4): 3050 ng·h/mL
AUC0-tau [5, 14]: 6580 ng·h/mL
AUC0-∞ [5, 14]: 6880 ng·h/mL
Cmax [5, 14]: 764 ng/mL
t1/2 [5, 14]: 14.0 h
AUC0-12 [5, 15]: 6550 ng·h/mL
Cmax [5, 15]: 1030 ng/mL
t1/2 [5, 15]: 22.1 h
tmax ([5]; median, plasma KAR5417 after single oral 100 mg KAR5585, fasted, Cohort 1): 4.00 h
tmax ([5]; median, plasma KAR5417 after single oral 400 mg KAR5585, fed, Cohort 3B): 4.00 h
tmax ([5]; median, plasma KAR5417 after single oral 700 mg KAR5585, fasted, Cohort 4): 4.00 h
time up to which concentrations remained above the LLOQ ([5]; single 100 mg KAR5585, fasting): up to 12 hours
mean apparent terminal (elimination) half-life ([5]; single 100 mg dose of KAR5585): 4.67 h
time up to which concentrations remained above the LLOQ ([5]; single 200 mg KAR5585, fasting): ≤ 24 h
time up to which concentrations remained above the LLOQ ([5]; single 400 mg KAR5585, fasting): ≤ 36 h
time up to which concentrations remained above the LLOQ ([5]; single 700 mg KAR5585, fasting): ≤ 48 h
time up to which concentrations remained above the LLOQ ([5]; single 1200 mg KAR5585, fasting): ≤ 48 h
time up to which concentrations remained above the LLOQ ([5]; single 2000 mg KAR5585, fasting): ≤ 72 h
elimination half-life ([5]; single dose 400 mg KAR5585, Part 1 Cohort 3B): 20.5 h
SMILES: Nc1nc(O[C@H](c2ccc(Cl)cc2-c2ccccc2)C(F)(F)F)cc(N2CCC3(CC2)CN[C@H](C(=O)O)C3)n1 [KAR5417, (S)-8-(2-amino-6-((R)-1-(5-chloro-[1,1′-biphenyl]-2-yl)-2,2,2-trifluoroeth-oxy)pyrimidin-4-yl)-2,8-diazaspiro[4.5]decane-3-carboxylic acid]
